Source: EP1345943B1, “INHIBITORS OF PAPILLOMA VIRUS” (BOEHRINGER INGELHEIM (CANADA) LTD., priority 2000, dated 2002)

biological target: E1-E2-DNA complex (Human papillomavirus 11, UniProt P04015); assay: E2-dependent E1 DNA binding assay (E1-E2 DNA assay); settings: E1-E2 DNA assay of Example 11, HPV-11
Description: This particular assay determines the ability of a test compound to inhibit the activity (IC50) of HPV-11 DNA replication. More specifically, in the assay described herein, the inhibitory activity of the test compound is evaluated based on its ability to interfere with the E1-E2-DNA origin of replication interaction, thereby inhibiting initiation of viral DNA replication.
This assay was modeled on a similar assay for SV40 T Antigen described by McKay (J. Mol. Biol., 1981,145:471). A 400bp radiolabeled DNA probe, containing the -HPV-11 origin of replication (Chiang et al.., 1992, Proc. Natl.-Acad. Sci. USA 89:5799) was produced by pcr, using plasmid pBluescript™ SK encoding the origin (nucleotides 7886-61 of the HPV-11 genome in unique BAMH1 site) as template and primers flanking the origin. Radiolabel was incorporated as [33p]dCTP. Binding assay buffer consisted of: 20 mM Tris pH 7.6, 100 mM NaCI, 1 mM DTT, 1 mM EDTA.
Other reagents used were protein A-SPA beads (type II, Amersham) and K72 rabbit polyclonal antiserum, raised against a peptide corresponding to the C-terminal 14 amino acids of HPV-11 E1. Following the protocol from Amersham, one bottle of beads was mixed with 25 mL of binding assay buffer. For the assay, a saturating amount of K72 antiserum was added to the beads and the mixture was incubated for 1 h, washed with one volume of binding assay buffer, and then resuspended in the same volume of fresh binding assay buffer. Binding reactions contained 8 ng of E2, approximately 100-200 ng of purified E1, and 0.4 ng of radiolabeled probe in a total of 80 µL of binding assay buffer. After 1 h at room temperature, 25 µL of K72 antibody-SPA bead suspension was added to with the binding reaction and mixed. After an additional hour of incubation at room temperature, the reactions were centrifuged briefly to pellet the beads and the extent of complex formation was determined by scintillation counting on a Packard TopCount™. Typically, the signal for reactions containing E1 and E2 was 20-30 fold higher than the background observed when either E1, E2, or both was omitted.

E1-E2-DNA complex, sequence (P04015 whole entry, one chain of several): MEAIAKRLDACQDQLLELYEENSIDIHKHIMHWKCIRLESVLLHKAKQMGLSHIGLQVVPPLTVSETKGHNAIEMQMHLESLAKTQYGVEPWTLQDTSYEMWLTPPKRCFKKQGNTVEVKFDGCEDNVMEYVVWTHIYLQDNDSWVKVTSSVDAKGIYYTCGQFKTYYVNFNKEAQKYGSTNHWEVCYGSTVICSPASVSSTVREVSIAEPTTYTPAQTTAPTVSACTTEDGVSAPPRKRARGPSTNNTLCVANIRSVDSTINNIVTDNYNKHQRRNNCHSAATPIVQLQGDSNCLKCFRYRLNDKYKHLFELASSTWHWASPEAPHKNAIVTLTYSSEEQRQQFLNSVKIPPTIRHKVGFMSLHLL

Row | SMILES | IC50 [µM]
1 | CC(=O)Nc1ccc(NC(=O)C2C(c3ccc(Cl)c(Cl)c3)OC3(C(=O)c4ccccc4C3=O)C2C(=O)O)cc1 (stereo not drawn) [Compound 1108] | 0.5 to 5
2 | CC(=O)c1ccc(NC(=O)C2C(c3ccc4ccccc4c3)OC3(C(=O)c4ccccc4C3=O)C2C(=O)O)cc1 (stereo not drawn) [Compound 4004] | 0.5 to 5
3 | O=C(Nc1ccc(Cl)cc1)C1C(c2ccc(Br)c(Br)c2)OC2(C(=O)c3ccccc3C2=O)C1C(=O)O (stereo not drawn) [Compound 1110] | < 0.5
4 | O=C(Nc1ccc2c(c1)CCC2)C1C(c2ccc(Cl)cc2)OC2(C(=O)c3ccccc3C2=O)C1C(=O)O (stereo not drawn) [Compound 1013] | 5 to 50
5 | O=C(Nc1ccc(-c2csnn2)cc1)C1C(c2ccc(F)c(F)c2)OC2(C(=O)c3ccccc3C2=O)C1C(=O)O (stereo not drawn) [Compound 1083] | 0.5 to 5
6 | O=C(Nc1ccc2c(c1)OCO2)C1C(c2ccc(C(F)(F)F)c(F)c2)OC2(C(=O)c3ccccc3C2=O)C1C(=O)O (stereo not drawn) [Compound 1045] | 0.5 to 5
7 | Cc1ccc2c(c1)C(=O)C1(OC(c3ccc(Br)c(Br)c3)C(C(=O)Nc3ccc(N4CCOCC4)cc3)C1C(=O)O)C2=O (single isomer, unassigned) [Compound A1014] | < 0.5
8 | CS(=O)(=O)c1ccc(NC(=O)C2C(c3ccc(Cl)c(Cl)c3)OC3(C(=O)c4ccccc4C3=O)C2C(=O)O)cc1 (stereo not drawn) [Compound 1053] | 0.5 to 5
9 | O=C(Nc1ccc(N2CCOCC2)cc1)C1C(c2ccc(Cl)c(Cl)c2)OC2(C(=O)c3ccccc3C2=O)C1C(=O)O (stereo not drawn) [Compound 1034] | < 0.5
10 | O=C(Nc1ccc2c(c1)OCO2)C1C(c2ccc(Cl)c(F)c2)OC2(C(=O)c3ccccc3C2=O)C1C(=O)O (stereo not drawn) [Compound 1029] | 0.5 to 5
11 | CC(=O)c1ccc(NC(=O)C2C(c3ccc(Br)c(Br)c3)OC3(C(=O)c4ccccc4C3=O)C2C(=O)O)cc1 (racemic) [Compound 1027] | < 0.5
12 | O=C(NC1CC1c1ccccc1)C1C(c2ccc(Cl)c(Cl)c2)OC2(C(=O)c3ccccc3C2=O)C1C(=O)O (stereo not drawn) [Compound 1058] | 0.5 to 5
13 | O=C(Nc1ccc2c(c1)OCO2)C1C(c2ccc(Cl)c(Cl)c2)OC2(C(=O)c3cccc(F)c3C2=O)C1C(=O)O (stereo not drawn) [Compound 1048] | 0.5 to 5
14 | O=C(Nc1ccccc1OC(F)(F)F)C1C(c2ccc(Cl)c(Cl)c2)OC2(C(=O)c3ccccc3C2=O)C1C(=O)O (stereo not drawn) [Compound 1139] | 0.5 to 5
15 | COc1ccccc1NC(=O)C1C(c2ccc(Cl)c(Cl)c2)OC2(C(=O)c3ccccc3C2=O)C1C(=O)O (stereo not drawn) [Compound 1124] | 0.5 to 5
16 | O=C1C2C(c3ccc(Cl)c(Cl)c3)OC3(C(=O)c4ccccc4C3O)C2C(=O)N1c1ccc2c(c1)OCO2 (racemic) [Compound 9001] | 5 to 50
17 | O=C(Nc1ccc(Br)c(Cl)c1)C1C(c2ccc(Cl)c(Cl)c2)OC2(C(=O)c3ccccc3C2=O)C1C(=O)O (stereo not drawn) [Compound 1104] | 0.5 to 5
18 | O=C(Nc1ccc(N2CCOCC2)cc1)C1C(c2ccc(Br)c(Br)c2)OC2(C(=O)c3ccc(F)cc3C2=O)C1C(=O)O (stereo not drawn) [Compound 1143] | < 0.5
19 | N#Cc1cccc(C2OC3(C(=O)c4ccccc4C3=O)C(C(=O)O)C2C(=O)Nc2ccc3c(c2)OCO3)c1 (stereo not drawn) [Compound 1080] | 5 to 50
20 | O=C(Nc1ccc2c(c1)OCO2)C1C(c2cccc(Cl)c2)OC2(C(=O)c3ccccc3C2=O)C1C(=O)O (stereo not drawn) [Compound 1015] | 0.5 to 5
21 | O=C(Nc1ccc(Cl)cc1)C1C(c2ccc(Cl)c(Cl)c2)OC2(C(=O)c3ccccc3C2=O)C1C(=O)O (stereo not drawn) [Compound 1063] | 0.5 to 5
22 | O=C(NC1CCCCC1)C1C(c2ccc(Cl)c(Cl)c2)OC2(C(=O)c3ccccc3C2=O)C1C(=O)O (stereo not drawn) [Compound 1082] | 0.5 to 5
23 | O=C(Nc1ccccc1)C1C(c2ccc(Br)c(Br)c2)OC2(C(=O)c3ccccc3C2=O)C1C(=O)O (racemic) [Compound 1074] | < 0.5
24 | O=C(NC1CCCCC1)C1C(c2ccc(Cl)cc2)OC23C(=O)c4ccccc4C2(O)OC(=O)C13 (racemic) [Compound 3002] | 5 to 50
25 | O=C(NN1CCOCC1)C1C(c2ccc(Cl)c(Cl)c2)OC2(C(=O)c3ccccc3C2=O)C1C(=O)O (stereo not drawn) [Compound 1043] | 0.5 to 5
26 | O=C(NC1Cc2ccccc2C1)C1C(c2ccc(Br)c(Br)c2)OC2(C(=O)c3ccccc3C2=O)C1C(=O)O (stereo not drawn) [Compound 1113] | < 0.5
27 | Cc1ccc2c(c1)C(=O)C1(OC(c3ccc(Br)c(Br)c3)C(C(=O)Nc3ccc(-c4csnn4)cc3)C1C(=O)O)C2=O (single isomer, unassigned) [Compound A1011] | < 0.5

Row | SMILES | IC50 [µM]
28 | Cc1cccc(NC(=O)C2C(c3ccc(Cl)cc3)OC3(C(=O)c4ccccc4C3=O)C2C(=O)O)c1 (stereo not drawn) [Compound 1012] | 5 to 50
29 | O=C(Nc1ccc(N2CCOCC2)cc1)C1C(c2ccc(Br)c(Br)c2)OC2(C(=O)c3ccccc3C2=O)C1C(=O)O (single isomer, unassigned) [Compound A1013] | < 0.5
30 | O=C(Nc1ccc2c(c1)OCO2)C1C(c2ccc(I)cc2)OC2(C(=O)c3ccccc3C2=O)C1C(=O)O (stereo not drawn) [Compound 1039] | 0.5 to 5
31 | CC(=O)c1ccc(NC(=O)C2C(c3ccc(Cl)c(Cl)c3)OC34C(=O)c5ccccc5C3(O)OC(=O)C24)cc1 (racemic) [Compound 3009] | < 0.5
32 | O=C(Nc1cc2c(cc1[N+](=O)[O-])OCO2)C1C(c2ccc(Cl)c(Cl)c2)OC2(C(=O)c3ccccc3C2=O)C1C(=O)O (stereo not drawn) [Compound 1117] | 0.5 to 5
33 | O=C(NC1CC1c1ccccc1)C1C(c2ccc(Br)c(Br)c2)OC2(C(=O)c3ccccc3C2=O)C1C(=O)O (single isomer, unassigned) [Compound 1088] | 0.5 to 5
34 | Cc1ccc2c(c1)C(=O)C13OC(c4ccc(Br)c(Br)c4)C(C(=O)NCCc4ccccc4Cl)C1C(=O)OC23O (single isomer, unassigned) [Compound B1006] | 0.5 to 5
35 | O=C(Nc1ccc(Oc2ccccc2)cc1)C1C(c2ccc(Cl)c(Cl)c2)OC2(C(=O)c3ccccc3C2=O)C1C(=O)O (stereo not drawn) [Compound 1049] | 0.5 to 5
36 | Cc1ccc2c(c1)C(=O)C1(OC(c3ccc(Br)c(Br)c3)C(C(=O)Nc3ccc(-c4csnn4)cc3)C1C(=O)O)C2=O (single isomer, unassigned) [Compound A1010] | 0.5 to 5
37 | CC(NC(=O)C1C(c2ccc(Cl)c(Cl)c2)OC23C(=O)c4ccccc4C2(O)OC(=O)C13)c1ccccc1 (stereo not drawn) [Compound 3100] | 5 to 50
38 | CC(=O)c1ccc(NC(=O)C2C(C(Br)=Cc3ccccc3)OC3(C(=O)c4ccccc4C3=O)C2C(=O)O)cc1 (racemic) [Compound 4012] | 5 to 50
39 | CC(=O)c1ccc(NC(=O)C2C(c3ccc(Cl)c(Cl)c3)OC3(C(=O)c4ccc(Cl)cc4C3=O)C2C(=O)O)cc1 (stereo not drawn) [Compound 1116] | 5 to 50
40 | O=C(c1ccccc1)c1cccc(NC(=O)C2C(c3ccc(Br)c(Br)c3)OC3(C(=O)c4ccccc4C3=O)C2C(=O)O)c1 (stereo not drawn) [Compound 1103] | 0.5 to 5
41 | O=C(NCCc1ccccc1)C1C(c2ccc(Cl)c(Cl)c2)OC2(C(=O)c3ccccc3C2=O)C1C(=O)O (racemic) [Compound 1077] | < 0.5
42 | CC(=O)c1ccc(NC(=O)C2C(c3ccc(Cl)c(Cl)c3)OC3(C(=O)c4ccccc4C3=O)C2C(=O)O)cc1 (stereo not drawn) [Compound 1021] | < 0.5
43 | O=C(Nc1cccc(Cl)c1)C1C(c2ccc(Cl)cc2)OC2(C(=O)c3ccccc3C2=O)C1C(=O)O (stereo not drawn) [Compound 1006] | 5 to 50
44 | O=C(Nc1ccc(C(F)(F)F)cc1)C1C(c2ccc(Cl)cc2)OC2(C(=O)c3ccccc3C2=O)C1C(=O)O (stereo not drawn) [Compound 1014] | 5 to 50
45 | Cc1ccc(C2OC3(C(=O)c4ccccc4C3=O)C(C(=O)O)C2C(=O)Nc2cnc3ccccc3c2)cc1C (stereo not drawn) [Compound 1071] | 5 to 50
46 | O=C1C2C(c3ccc(Cl)cc3)OC3(C(=O)c4ccccc4C3=O)C2C(=O)N1c1ccc(Cl)cc1 (stereo not drawn) [Compound 2007] | 5 to 50
47 | O=C(NCc1ccccc1)C1C(c2ccc(Cl)c(Cl)c2)OC23C(=O)c4ccccc4C2(O)OC(=O)C13 (racemic) [Compound 3011] | 0.5 to 5
48 | Cc1cccc2c1C(=O)C1(OC(c3ccc(Cl)c(Cl)c3)C(C(=O)Nc3ccc4c(c3)OCO4)C1C(=O)O)C2=O (stereo not drawn) [Compound 1041] | 0.5 to 5
49 | CC(=O)c1ccc(NC(=O)C2C(C=Cc3cccc(Br)c3)OC3(C(=O)c4ccccc4C3=O)C2C(=O)O)cc1 (stereo not drawn) [Compound 4006] | 5 to 50
50 | O=C(Nc1ccc(N2CCOCC2)cc1)C1C(c2ccc(Br)c(Br)c2)OC2(C(=O)c3ccccc3C2=O)C1C(=O)O (stereo not drawn) [10,001] | 0.5 to 5
51 | CC(=O)c1ccc(NC(=O)C2C(c3ccc(C)c(C)c3)OC3(C(=O)c4ccccc4C3=O)C2C(=O)O)cc1 (stereo not drawn) [Compound 1056] | 0.5 to 5
52 | Nc1ccc(N2C(=O)C3C(c4ccc(Cl)c(Cl)c4)OC4(C(=O)c5ccccc5C4=O)C3C2=O)cc1 (stereo not drawn) [Compound 2019] | 0.5 to 5
53 | CC(=O)c1ccc(NC(=O)C2C(C=Cc3ccccc3C)OC3(C(=O)c4ccccc4C3=O)C2C(=O)O)cc1 (stereo not drawn) [Compound 4011] | 5 to 50
54 | Cc1cccc(C2OC3(C(=O)c4ccccc4C3=O)C(C(=O)O)C2C(=O)Nc2ccc3c(c2)OCO3)c1 (stereo not drawn) [Compound 1018] | 5 to 50
